According to patent publication US20260306644A1, “ANTIBODY RECRUITING MOLECULES FOR THE TREATMENT OF CORONAVIRUS DISEASE-19” (priority 2023, published 2026):
Values joined by “and” are separate entries in the source; they are usually repeats but may differ in a detail not shown here. Equal values may be shown once. Read-outs that look alike come from different tables or passages of the source. Positions of bridges follow the written chain, without caps; N, C: chain ends. No end group written: not given here.

Tests used:
[1] = target: SARS-CoV-2 Spike protein (Severe acute respiratory syndrome coronavirus 2, UniProt P0DTC2); experiment: Ternary binding of SARS-CoV-2 Spike protein (293T cells expressing Spike-GFP, IgG-AF647, flow cytometry); type: cell-based; details: 293T cells expressing Spike-GFP; IgG-AF647 10 μg/ml; repeat values/batches listed separately; read-out: SARS-CoV-2 Ternary binding EC50
Procedure: 293T cells stably expressing SARS-CoV-2 Spike-GFP protein on their surface were incubated with a concentration range of compound for 30 minutes at 37° C.-5% CO2 in Roswell Park Memorial Institute Medium (RPMI)-5% low IgG serum with 10 μg/ml IgG-Alexa Fluor® 647 (AF647). The cells were washed twice using the same medium, resuspended in phosphate-buffered saline (PBS)-1% bovine serum albumin (BSA), and acquired on Attune™ NxT Flow Cytometer. In some embodiments, mean fluorescence intensity of AF647 as well as […] AF647 positive in GFP positive gate are reported as readouts in this assay.

[2] = target: T1, SARS-CoV-2 Spike A (wild-type) (Severe acute respiratory syndrome coronavirus 2, UniProt P0DTC2); experiment: MSD ACE2 competition assay (inhibition of Spike binding with ACE2, ECL), A (wild-type)
T1 construct: purchased Meso Scale Diagnostics, LLC V-PLEX SARS-CoV-2 Panel 13 (ACE2) Kit / Panel 23 (ACE2) Kit

[3] = IC50 Wild Type, Wild Type Spike
[4] = read-out: IC50 Wild Type, Wild Type Spike

## CC[C@H](C)[C@H](NC(=O)[C@H](CC(C)C)NC(=O)[C@H](CC(=O)O)NC(=O)[C@H](CO)NC(=O)[C@@H](NC(=O)[C@H](CCCNC(=N)N)NC(=O)[C@H](CCSC)NC(=O)[C@H](CO)NC(=O)[C@H](C)NC(=O)[C@H](CCC(=O)O)NC(=O)[C@H](C)NC(=O)[C@H](Cc1c[nH]cn1)NC(=O)CNC(=O)[C@H](CC(C)C)NC(=O)[C@H](CCC(=O)O)NC(=O)[C@H](CC(=O)O)NC(=O)[C@H](CC(C)C)NC(=O)[C@H](CC(C)C)NC(=O)[C@H](CCCNC(=N)N)NC(=O)[C@H](CCSC)NC(=O)[C@@H](NC(=O)[C@H](CCC(=O)O)NC(=O)[C@H](Cc1ccc(O)cc1)NC(=O)[C@@H](NC(=O)[C@H](CCCCN)NC(=O)[C@H](CCC(N)=O)NC(=O)[C@H](CC(C)C)NC(=O)[C@@H](NC(=O)[C@H](Cc1c[nH]c2ccccc12)NC(=O)[C@H](CCC(=O)O)NC(=O)[C@H](CCCCN)NC(=O)[C@@H](N)CC(=O)O)[C@@H](C)CC)[C@@H](C)CC)[C@@H](C)CC)C(C)C)C(=O)N[C@@H](Cc1ccc(O)cc1)C(=O)N[C@@H](CCC(=O)O)C(=O)N[C@@H](Cc1ccccc1)C(=O)N[C@@H](CCSC)C(=O)N[C@@H](CCCCN)C(=O)N[C@@H](CCCCN)C(=O)NCC(=O)N[C@@H](CCC(N)=O)C(=O)N[C@@H](C)C(=O)N1CCC[C@H]1C(=O)N[C@@H](CC(=O)O)C(=O)N[C@H]1CSSC[C@@H](C(=O)N[C@H](C(=O)O)[C@@H](C)O)NC(=O)[C@H](Cc2c[nH]c3ccccc23)NC(=O)[C@H](C(C)C)NC(=O)[C@H](CC(C)C)NC(=O)[C@H](CCC(=O)O)NC(=O)CNC(=O)[C@H](CC(C)C)NC(=O)[C@H](Cc2c[nH]cn2)NC(=O)[C@H](Cc2c[nH]c3ccccc23)NC(=O)[C@H](C)NC1=O [Compound 108]
[1]
  EC50: 2.7 nM and 1.9 nM
[2]; [3]
  IC50: 20.6 nM

## Ac-ILQKIYEICRLLDELGHAEASMRCSDLIYEFMKKGDCAWHLGELVWCT-NH2 (disulfide 9-24, 37-47) [Compound 141]
[1]
  EC50: 3.4 nM and 2.1 nM
[2]; [4]
  IC50: 25.1 nM and 43.8 nM and 30.1 nM

## ILQKIYEIMRLLDELGHAEASMRVSDLIYEFMKKDCAWHLGELVWCT (disulfide 36-46) [Compound 119]
[1]
  EC50: 2.4 nM and 2.9 nM
[2]; [3]
  IC50: 46.6 nM and 66.7 nM

## CC[C@H](C)[C@H](NC(=O)[C@H](CC(C)C)NC(=O)[C@H](CC(=O)O)NC(=O)[C@H](CO)NC(=O)[C@@H](NC(=O)[C@H](CCCNC(=N)N)NC(=O)[C@H](CCSC)NC(=O)[C@H](CO)NC(=O)[C@H](C)NC(=O)[C@H](CCC(=O)O)NC(=O)[C@H](C)NC(=O)[C@H](Cc1c[nH]cn1)NC(=O)CNC(=O)[C@H](CC(C)C)NC(=O)[C@H](CCC(=O)O)NC(=O)[C@H](CC(=O)O)NC(=O)[C@H](CC(C)C)NC(=O)[C@H](CC(C)C)NC(=O)[C@H](CCCNC(=N)N)NC(=O)[C@H](CCSC)NC(=O)[C@@H](NC(=O)[C@H](CCC(=O)O)NC(=O)[C@H](Cc1ccc(O)cc1)NC(=O)[C@@H](NC(=O)[C@H](CCCCN)NC(=O)[C@H](CCC(N)=O)NC(=O)[C@H](CC(C)C)NC(=O)[C@@H](NC(=O)[C@H](Cc1c[nH]c2ccccc12)NC(=O)[C@H](CCC(=O)O)NC(=O)[C@H](CCCCN)NC(=O)[C@@H](N)CC(=O)O)[C@@H](C)CC)[C@@H](C)CC)[C@@H](C)CC)C(C)C)C(=O)N[C@@H](Cc1ccc(O)cc1)C(=O)N[C@@H](CCC(=O)O)C(=O)N[C@@H](Cc1ccccc1)C(=O)N[C@@H](CCSC)C(=O)N[C@@H](CCCCN)C(=O)N[C@@H](CCCCN)C(=O)NCC(=O)NCC(=O)NCC(=O)NCC(=O)N[C@@H](CC(=O)O)C(=O)N[C@H]1CSSC[C@@H](C(=O)N[C@H](C(=O)O)[C@@H](C)O)NC(=O)[C@H](Cc2c[nH]c3ccccc23)NC(=O)[C@H](C(C)C)NC(=O)[C@H](CC(C)C)NC(=O)[C@H](CCC(=O)O)NC(=O)CNC(=O)[C@H](CC(C)C)NC(=O)[C@H](Cc2c[nH]cn2)NC(=O)[C@H](Cc2c[nH]c3ccccc23)NC(=O)[C@H](C)NC1=O [Compound 106]
[1]
  EC50: 2.6 nM and 2.5 nM
[2]; [3]
  IC50: 22.1 nM

## Ac-DCAWHLGELVWCTILQKIYEIMRLLDELGHAEASMRVSDLIYEFMKK (disulfide 2-12) [Compound 122]
[1]
  EC50: > 10 nM
[2]; [3]
  IC50: 33.5 nM

## Ac-ILQKIYEIMRLLDELGHAEASMRVSDLIYEFMKKDCAWHLGELVWCT (disulfide 36-46) [Compound 118]
[1]
  EC50: 0.53 nM and 0.61 nM
[2]; [3]
  IC50: 61.9 nM and 62.5 nM

## CC[C@H](C)[C@H](NC(=O)[C@H](CC(C)C)NC(=O)[C@H](CC(=O)O)NC(=O)[C@H](CO)NC(=O)[C@@H](NC(=O)[C@H](CCCNC(=N)N)NC(=O)[C@H](CCSC)NC(=O)[C@H](CO)NC(=O)[C@H](C)NC(=O)[C@H](CCC(=O)O)NC(=O)[C@H](C)NC(=O)[C@H](Cc1c[nH]cn1)NC(=O)CNC(=O)[C@H](CC(C)C)NC(=O)[C@H](CCC(=O)O)NC(=O)[C@H](CC(=O)O)NC(=O)[C@H](CC(C)C)NC(=O)[C@H](CC(C)C)NC(=O)[C@H](CCCNC(=N)N)NC(=O)[C@H](CCSC)NC(=O)[C@@H](NC(=O)[C@H](CCC(=O)O)NC(=O)[C@H](Cc1ccc(O)cc1)NC(=O)[C@@H](NC(=O)[C@H](CCCCN)NC(=O)[C@H](CCC(N)=O)NC(=O)[C@H](CC(C)C)NC(=O)[C@@H](NC(=O)[C@H](Cc1c[nH]c2ccccc12)NC(=O)[C@H](CCC(=O)O)NC(=O)[C@H](CCCCN)NC(=O)[C@@H](N)CC(=O)O)[C@@H](C)CC)[C@@H](C)CC)[C@@H](C)CC)C(C)C)C(=O)N[C@@H](Cc1ccc(O)cc1)C(=O)N[C@@H](CCC(=O)O)C(=O)N[C@@H](Cc1ccccc1)C(=O)N[C@@H](CCSC)C(=O)N[C@@H](CCCCN)C(=O)N[C@@H](CCCCN)C(=O)NCC(=O)N[C@@H](CC(=O)O)C(=O)N[C@H]1CSSC[C@@H](C(=O)N[C@H](C(=O)O)[C@@H](C)O)NC(=O)[C@H](Cc2c[nH]c3ccccc23)NC(=O)[C@H](C(C)C)NC(=O)[C@H](CC(C)C)NC(=O)[C@H](CCC(=O)O)NC(=O)CNC(=O)[C@H](CC(C)C)NC(=O)[C@H](Cc2c[nH]cn2)NC(=O)[C@H](Cc2c[nH]c3ccccc23)NC(=O)[C@H](C)NC1=O [Compound 113]
[1]
  EC50: 0.48 nM and 0.47 nM
[2]; [3]
  IC50: 41.2 nM and 52.9 nM

## Ac-QKIYEICRLLDELGHAEASMRCSDLIYEFMKKGDCAWHLGELVWCT-NH2 (disulfide 7-22, 35-45) [Compound 140]
[1]
  EC50: > 100 nM
[2]; [4]
  IC50: 1560 nM

## CC[C@H](C)[C@H](NC(=O)[C@H](CC(C)C)NC(=O)[C@H](CC(=O)O)NC(=O)[C@H](CO)NC(=O)[C@@H](NC(=O)[C@H](CCCNC(=N)N)NC(=O)[C@H](CCSC)NC(=O)[C@H](CO)NC(=O)[C@H](C)NC(=O)[C@H](CCC(=O)O)NC(=O)[C@H](C)NC(=O)[C@H](Cc1c[nH]cn1)NC(=O)CNC(=O)[C@H](CC(C)C)NC(=O)[C@H](CCC(=O)O)NC(=O)[C@H](CC(=O)O)NC(=O)[C@H](CC(C)C)NC(=O)[C@H](CC(C)C)NC(=O)[C@H](CCCNC(=N)N)NC(=O)[C@H](CCSC)NC(=O)[C@@H](NC(=O)[C@H](CCC(=O)O)NC(=O)[C@H](Cc1ccc(O)cc1)NC(=O)[C@@H](NC(=O)[C@H](CCCCN)NC(=O)[C@H](CCC(N)=O)NC(=O)[C@H](CC(C)C)NC(=O)[C@@H](NC(=O)[C@H](Cc1c[nH]c2ccccc12)NC(=O)[C@H](CCC(=O)O)NC(=O)[C@H](CCCCN)NC(=O)[C@H](CC(=O)O)NC(C)=O)[C@@H](C)CC)[C@@H](C)CC)[C@@H](C)CC)C(C)C)C(=O)N[C@@H](Cc1ccc(O)cc1)C(=O)N[C@@H](CCC(=O)O)C(=O)N[C@@H](Cc1ccccc1)C(=O)N[C@@H](CCSC)C(=O)N[C@@H](CCCCN)C(=O)N[C@@H](CCCCN)C(=O)NCC(=O)N[C@@H](CC(=O)O)C(=O)N[C@H]1CSSC[C@@H](C(=O)N[C@H](C(N)=O)[C@@H](C)O)NC(=O)[C@H](Cc2c[nH]c3ccccc23)NC(=O)[C@H](C(C)C)NC(=O)[C@H](CC(C)C)NC(=O)[C@H](CCC(=O)O)NC(=O)CNC(=O)[C@H](CC(C)C)NC(=O)[C@H](Cc2c[nH]cn2)NC(=O)[C@H](Cc2c[nH]c3ccccc23)NC(=O)[C@H](C)NC1=O [Compound 129]
[1]
  EC50: 2.3 nM and 3 nM
[2]; [3]
  IC50: 25 nM

## CC[C@H](C)[C@H](NC(=O)[C@H](CC(C)C)NC(=O)[C@H](CC(=O)O)NC(=O)[C@H](CO)NC(=O)[C@@H](NC(=O)[C@H](CCCNC(=N)N)NC(=O)[C@H](CCSC)NC(=O)[C@H](CO)NC(=O)[C@H](C)NC(=O)[C@H](CCC(=O)O)NC(=O)[C@H](C)NC(=O)[C@H](Cc1c[nH]cn1)NC(=O)CNC(=O)[C@H](CC(C)C)NC(=O)[C@H](CCC(=O)O)NC(=O)[C@H](CC(=O)O)NC(=O)[C@H](CC(C)C)NC(=O)[C@H](CC(C)C)NC(=O)[C@H](CCCNC(=N)N)NC(=O)[C@H](CCSC)NC(=O)[C@@H](NC(=O)[C@H](CCC(=O)O)NC(=O)[C@H](Cc1ccc(O)cc1)NC(=O)[C@@H](NC(=O)[C@H](CCCCN)NC(=O)[C@H](CCC(N)=O)NC(=O)[C@H](CC(C)C)NC(=O)[C@@H](NC(=O)[C@H](Cc1c[nH]c2ccccc12)NC(=O)[C@H](CCC(=O)O)NC(=O)[C@H](CCCCN)NC(=O)[C@@H](N)CC(=O)O)[C@@H](C)CC)[C@@H](C)CC)[C@@H](C)CC)C(C)C)C(=O)N[C@@H](Cc1ccc(O)cc1)C(=O)N[C@@H](CCC(=O)O)C(=O)N[C@@H](Cc1ccccc1)C(=O)N[C@@H](CCSC)C(=O)N[C@@H](CCCCN)C(=O)N[C@@H](CCCCN)C(=O)N[C@@H](CC(=O)O)C(=O)N[C@H]1CSSC[C@@H](C(=O)N[C@H](C(=O)O)[C@@H](C)O)NC(=O)[C@H](Cc2c[nH]c3ccccc23)NC(=O)[C@H](C(C)C)NC(=O)[C@H](CC(C)C)NC(=O)[C@H](CCC(=O)O)NC(=O)CNC(=O)[C@H](CC(C)C)NC(=O)[C@H](Cc2c[nH]cn2)NC(=O)[C@H](Cc2c[nH]c3ccccc23)NC(=O)[C@H](C)NC1=O [Compound 115]
[1]
  EC50: 0.34 nM and 0.36 nM and 0.23 nM and 0.26 nM
[2]; [3]
  IC50: 45.7 nM
